Reference: ChEMBL document CHEMBL5728172, “Pteridine dione monocarboxylate transporter inhibitors” (2020)

Experiment: Biological Activity of Selected Compounds of the Invention: Specific Examples of compounds of the invention, with estimated EC50 values determined using an MTT assay for 4-day viability of Raji (Burkitt's) lymphoma cells, a cell line known to highly express MCT1 and to be sensitive to small molecule MCT inhibitors,4 are shown in Table 3. Assay protocols follow those described in the literature.4 Other assays that are not described here but that are standard in the field, such as an assay for competitive inhibition of transport of radiolabeled lactic acid, an MCT substrate, may also be useful in establishing mechanism of action of these compounds.
Conditions: 96 h

CC(C)Cn1c(=O)n(C)c(=O)c2nc(CCCCCO)c(COc3cccc4ncccc34)nc21 gave an EC50 of less than 0.05 µM.
